The test system of experiment [1] is MHV-A59 spike mediated cell-cell fusion in LR7 cells. As to the kind of experiment: Cell-cell fusion inhibition plaque assay. The experiment is classed as cell-based, mouse hepatitis virus (MHV) strain A59. The method, then: FIG. 12: Inhibition of cell-cell fusion by HR2 peptide. After inoculation of parallel cultures of LR7, cells with MHV-A59 cells were overlaid with agar medium containing different concentrations of HR2 peptide and plaques were counted the following day.
(§1) The potency of the HR2 peptide in inhibiting viral infection was determined using the recombinant MHV-EFLM expressing the firefly luciferase. Confluent monolayers of LR7 cells in 96-well plates were inoculated at 37° C. in DMEM at a multiplicity of infection of 5 for 1 hour in the presence of varying concentrations of peptide ranging from 0.4-50 μM. After 1 hour, cells were washed with DMEM and medium was replaced by peptide-free DMEM. At 5 hours post-infection cells were lysed for 15 minutes at RT in 50 μl Lysis buffer, according to the manufacturer's protocol (Luciferase Assay System, Promega). Upon mixing of 10 μl cell lysate with 40 μl substrate, luciferase activity was measured immediately using a Wallace Betaluminometer. […]

The subject of experiment [2] is MHV-EFLM infection of LR7 cells. As to the kind of experiment: Virus-cell entry inhibition assay with luciferase-expressing MHV-EFLM. It counts as cell-based, mouse hepatitis virus (MHV) strain A59. The settings on record: peptide concentration 50 μM. The method, then:
FIG. 11: Inhibition of MHV infection by the HR2 peptide. LR7 cells were inoculated with the virus MHV-EFLM in the presence of different concentrations of HR2 peptide or, as a control, a peptide corresponding to amino acids 1003-1048 of the viral S protein. After one hour of inoculation, cells were washed and incubated further in the absence of peptide. To evaluate the success of the infection, cells were analyzed at 4 hours post-infection for luciferase expression. In the figure luciferase activity is plotted against the different peptide concentrations used.
as §1

The record followed here is US7556957B2, “Coronavirus-like particles comprising functionally deleted genomes” (Stichting voor de Technische Wetenschappen, priority 2001, dated 2009).

Where no end group is shown, it is not given here.

On to “GPIEGRDLSLDFEKLNVTLLDLTYEMNRIQDAIKKLNESYINLKE [HR2 peptide]”, for which the “formation of plaques (cell-cell fusion)” value in experiment [1] (0.08 μM HR2 peptide in agar overlay) is on record as “only tiny plaques”; in experiment [1] (HR2 peptide in agar overlay at concentrations of up to 0.4 μM), “completely abolished”. In addition, the “inhibition of viral infection (entry)” value in experiment [2] is on record as “inhibited virtually completely”.
